Like-named read-outs stand apart in the source and are kept apart here.
Assays:
[1] = tested on: Bel7402; design: method as in PMID 31080076; conditions: cited from earlier work
[2] = tested on: Bel-7402/5-FU; design: method as in PMID 31080076; conditions: cited from earlier work
[3] = tested on: SW480 cells; assay: Cell viability, sulforhodamine B (SRB) assay; type: cell-based; conditions: Homo sapiens
Method: (§1) SW480 (colon adenocarcinoma) and SW620 (derived metastatic) malignant cell lines, and the non-malignant lines HaCaT (human keratinocytes) and CHO-K1 (Chinese Hamster Ovary), were obtained from the European Collection of Authenticated Cell Cultures (ECACC, Porton Down, Salisbury, UK). The cells were maintained in Dulbecco’s Modified Eagle’s Medium (DMEM), supplemented with 10% equine serum previously inactivated at 56 °C, 1% penicillin/streptomycin, and 1% non-essential amino acids, and incubated at 37 °C in an atmosphere with 5% CO2. To carry out the experiments, the serum was diluted to 3% and additionally supplemented with […] insulin, […] transferrin, and 5 ng/mL selenium. Cells were used for experimentation when they reached 80–90% confluence, using a 1X trypsin enzymatic disintegration method. To avoid contamination by Mycoplasma spp., cell cultures were periodically analyzed by polymerase chain reaction (PCR).
(§2) Cell viability was evaluated with a sulforhodamine B (SRB) assay. This technique provides an index of protein contents in living and adherent cells, whose optical density can be related to cell concentration. Initially, 20,000 cells were seeded per well in 96-well culture plates. An initial adherence period of 24 h was performed at 37 °C, 5% CO2, and after this, the medium was replaced by another that contained the hybrid compounds in different concentrations. Then, the cells were left incubating for 24 and 48 h under the same conditions previously described. After the respective incubation times, the cells were fixed with trichloroacetic acid (50% v/v) for 1 h at 4 °C and stained with 0.4% (p/v) of SRB. Subsequently, washings with 1% acetic acid were carried out to eliminate possible nonspecific bindings, and after solubilization with 10 mM Tris-base, the absorbance was read at 492 nm in a microplate reader (Mindray MR-96A). All the experiments were carried out in triplicate.

[4] = tested on: SW620 cells; assay: Cell viability, sulforhodamine B (SRB) assay; type: cell-based, human
Method: as §1, §2

[5] = tested on: HaCaT cells; assay: Cell viability, sulforhodamine B (SRB) assay, non-malignant cells; type: cell-based; conditions: Homo sapiens
Method: as §1, §2

[6] = tested on: CHO-K1 cells; assay: as above; type: cell-based, Chinese Hamster; conditions: Cricetulus griseus
Method: as §1, §2

[7] = tested on: SW620 cells; assay: Antiproliferative activity (SRB, 0-8 days); type: cell-based, human; conditions: for viability at 2.5 µM / viability at 40 µM: Homo sapiens, read-out: Cell Viability (%) ± SE; for viability at 2.5 µM: SW620, 2.5 µM; for viability at 40 µM: SW620, 40 µM
Method: For this experiment, the same colorimetric method (SRB) from the evaluation of cell viability was used, although with some modifications. Initially, 2500 cells per well were seeded in 96-well culture plates, and a 24 h adherence period was performed at 37 °C in a 5% CO2 atmosphere. […] For this assay, incubation periods of 0, 2, 4, 6, and 8 days were used, and the fixation, staining, and reading conditions were the same as those previously described for the cytotoxicity assay.

[8] = tested on: SW620 cells; assay: Cell cycle analysis (PI, flow cytometry); type: cell-based, human; conditions: SW620, treated with IC50 value, 48 h
Method: The method used for the recognition of cell cycle phases (G0/G1, S, G2/M) was based on staining with a fluorescent dye (propidium iodide—PI), as a direct relationship between fluorescence intensity and DNA content can be established. For this method, 250,000 cells/well were initially seeded in 6-well culture plates with an adherence period of 24 h at 37 °C in a 5% CO2 atmosphere. […] After treatment, cells were obtained by mechanical disaggregation, and the cell pellet was centrifuged and washed with a versene buffer. The cell pellet was fixed with 1.8 mL of cold 70% ethanol and kept at 4 °C overnight. Subsequently, two washes with a versene buffer were performed, and the pellet was resuspended in 300 µL of PBS containing 0.25 mg/mL of RNAsa and 0.1 mg/mL of PI. After a 30 min period of dark incubation, the fluorescence of 10,000 cells was analyzed using a FACS Canto II flow cytometer. The PI signal was analyzed with excitation at 488 nm using a sapphire laser, and fluorescence was detected at 610 nm. The data analysis was performed with FlowJo 10.8.1 software.

[9] = tested on: SW620 cells; assay: Mitochondrial membrane potential (DiOC6/PI, flow cytometry); type: cell-based, human; conditions: SW620, treated with IC50, 48 h
Method: The fluorescent dyes PI and DIOC6 (3,3’-dihexyloxacarbocyanine iodide) were used to observe the depolarization of the mitochondrial membrane as well as possible cell membrane damage. For this method, 250,000 cells/well were initially seeded in 6-well culture plates during a 24 h adherence period at 37 °C in a 5% CO2 atmosphere. […] After treatment, cells were obtained by mechanical disaggregation, stained with DiOC6 and PI, and incubated at room temperature for 30 min in the dark. Ten thousand events were analyzed by flow cytometry with excitation at 488 nm and emission detection with green (530/15 nm) and red (610/20 nm) filters.

[10] = tested on: SW620 cells; assay: Cell death induction (Annexin-V/PI, flow cytometry); type: cell-based, human; conditions: SW620, treated with IC50, 48 h
Method: For this method, 250,000 cells/well were initially seeded in 6-well culture plates during a 24 h adherence period at 37 °C in a 5% CO2 atmosphere. […] After treatment, cells were obtained by mechanical disaggregation, resuspended in a solution with Annexin-V-FLUOS and PI, and incubated for 20 min in the dark before flow cytometry analysis.

[11] = tested on: caspase 3, caspase 7, caspase 8 and p53 in SW620 cells; assay: Apoptotic biomarkers (ELISA); type: cell-based, human; conditions: SW620, treated with IC50, 48 h, vs control
Method: To provide an approach to the possible molecular mechanisms through which the hybrid compounds induce an effect on the cell lines, different proteins related to the process of death by apoptosis were determined. For this method, 1,000,000 cells were initially seeded per Petri dish, with an adherence period of 24 h at 37 °C in a 5% CO2 atmosphere. […] Later, the consumed medium was discarded, and after the addition of the versene buffer, the cells were obtained by mechanical disaggregation. The cells were then lysed with a cell lysis buffer and centrifuged to obtain the supernatant, which was used to determine the biomarkers of interest by enzyme-linked immunosorbent assays. These ELISA kits were provided by Elabscience Biotechnology Co., Houston, TX, USA [26].

[12] = tested on: HT29 colorectal adenocarcinoma cells; design: method as in PMID 33652694; conditions: cited from earlier work
[13] = tested on: metastatic SW620; design: method as in PMID 33652694; conditions: cited from earlier work
[14] = tested on: normal 3T3 cells; design: method as in PMID 31080076; conditions: normal 3T3 cells (mouse embryonic fibroblast cell line); cited from earlier work
[15] = tested on: SW480 cells; design: method as in PMID 36297411; conditions: cited from earlier work
[16] = tested on: SW620 cells; design: method as in PMID 36297411; conditions: cited from earlier work
[17] = tested on: SW480 human colon adenocarcinoma cells; design: method as in PMID 34062841; conditions: cited from earlier work
[18] = tested on: SW620 cell line; design: method as in PMID 34062841; conditions: cited from earlier work
[19] = tested on: SGC-7901; design: method as in PMID 30025345; conditions: cited from earlier work
[20] = tested on: MGC-803; design: method as in PMID 30025345; conditions: cited from earlier work
[21] = tested on: SMMC-7721; design: method as in PMID 30025345; conditions: cited from earlier work
[22] = tested on: U87; design: method as in PMID 30025345; conditions: cited from earlier work
[23] = tested on: RPMI8226 cells; design: method as in PMID 23784627; conditions: cited from earlier work
[24] = tested on: MM1S cells; design: method as in PMID 23784627; conditions: cited from earlier work
[25] = tested on: U266 cells; design: method as in PMID 23784627; conditions: cited from earlier work
[26] = tested on: THP-1 cell line; design: method as in PMID 27060762; conditions: cited from earlier work
[27] = tested on: COLO-205 cell line; design: method as in PMID 27060762; conditions: cited from earlier work
[28] = tested on: HCT-116 cell line; design: method as in PMID 27060762; conditions: cited from earlier work
[29] = tested on: tubulin polymerization; design: method as in PMID 27060762; conditions: in THP-1 tumor cells; read-out: IC50, inhibition of tubulin polymerization; cited from earlier work
[30] = SW-620, 48 h, 2 days after plating
[31] = SW-620, 96 h, 4 days after plating
[32] = SW-620, 144 h, 6 days after plating
[33] = SW-620, 192 h, 8 days after plating

SMILES: COc1cccc2c1C(=O)c1c(O)c3c(c(O)c1C2=O)C[C@@](O)(C(=O)CO)C[C@@H]3O[C@H]1C[C@H](N)[C@H](O)[C@H](C)O1 [Adriamycin]
- IC50 [1]: 730 nM
- IC50 [2]: 1140 nM

SMILES: COc1cc(/C=C/C(=O)c2ccc(OCCCCCCn3cc(Cn4cc(F)c(=O)[nH]c4=O)nn3)cc2)ccc1O [Compound 6e, (E)-5-fluoro-1-((1-(6-(4-(3-(4-hydroxy-3-methoxyphenyl)acryloyl)phenoxy)hexyl)-1H-1,2,3-triazol-4-yl)methyl)pyrimidine-2,4(1H,3H)-dione]
- IC50 ([3]; SW480, 24 h): 38.8 ± 5.46 µM
- IC50 ([3]; SW480, 48 h): 18.2 ± 0.88 µM
- IC50 ([4]; 48 h): 14.5 ± 1.31 µM
- IC50 ([4]; Homo sapiens, SW-620, 24 h, 24 h): > 100 µM
- IC50 ([4]; Homo sapiens, SW-620, 48 h, 48 h): 19.5 µM
- IC50 ([5]; 24 h): 76.9 ± 5.87 µM
- IC50 ([5]; 48 h): 19.7 ± 1.99 µM
- IC50 ([6]; CHO-K1, 24 h): 33.8 ± 2.2 µM
- IC50 ([6]; CHO-K1, 48 h): 34.5 ± 1.37 µM
- viability at 2.5 µM [7, 30]: 95.6 ± 4.08%
- viability at 40 µM [7, 30]: 8.77 ± 1.85%
- viability at 2.5 µM [7, 31]: 60.65 ± 0.46%
- viability at 40 µM [7, 31]: 0%
- viability at 2.5 µM [7, 32]: 56.5 ± 2.09%
- viability at 40 µM [7, 32]: 0%
- viability at 2.5 µM [7, 33]: 48.9 ± 3.46%
- viability at 40 µM [7, 33]: 0%
- inhibition percentages (decrease in cell viability) ([7]; SW620, from 20 µM, day 2): higher than 30%
- Cell cycle distribution, G0/G1 [8]: 20.6%
- Cell cycle distribution, G2/M [8]: 8.8%
- Cell cycle distribution, S Phase [8]: 24.5%
- Dioc6 High population (live cells with high membrane polarization) [9]: 96%
- Dioc6 Low population (cells that lose membrane polarization) [9]: 0%
- PI+ population (membrane damage or dead cells) [9]: 4.05%
- changes in the mitochondrial membrane potential [9]: do not induce significant changes
- Annexin V/PI quadrant Q4 (viable cells) [10]: 84.7%
- levels of executioner caspases 3 and 7 [11]: Significantly increased levels

SMILES: COc1cccc(/C=C2\CCC/C(=C\c3cccc(OC)c3OC)C2=O)c1OC [DMCH, (2E,6E)-2,6-Bis(2,3-Dimethoxybenzylidine) Cyclohexanone]
- increase of the sub-G0/G1 population in the cell cycle [12]: more than 70%
- increase of the sub-G0/G1 population in the cell cycle [13]: more than 70%

SMILES: C=C1C(=O)OC2C1CCC(COC(=O)Cn1cc(F)c(=O)n(Cc3ccc(C(F)(F)F)cc3)c1=O)=CCCC1(C)OC21 (centres unmarked) [D]
- IC50 [14]: 5.2 µM

SMILES: O=c1[nH]c(=O)n(Cc2cn(CCOc3cc(O)c4c(=O)c(-c5ccc(O)cc5)coc4c3)nn2)cc1F [E]
- IC50 [15]: 62.7 ± 7.26 µM
- IC50 [16]: 50.6 ± 1.33 µM

SMILES: COc1ccc(/C=C/c2ccc(C(=O)/C=C/c3ccc(O)c(OC)c3)cc2)c(OC)c1 [G]
- IC50 [17]: 29.2 µM
- IC50 [18]: 20.4 µM

SMILES: COc1cc(OC)c2c(=O)c(OCCCOc3ccccc3/C=C/C(=O)/C=C/c3ccccn3)c(-c3cc(OC)c(OC)c(OC)c3)oc2c1 [H]
- IC50 [19]: 1080 nM
- IC50 [20]: 560 nM
- IC50 [21]: 3.18 µM
- IC50 [22]: 3.93 µM

SMILES: COc1cc(/C=C/C(=O)C(=Cc2cccc3c2C(=O)N(C2CCC(=O)NC2=O)C3=O)C(=O)/C=C/c2ccc(O)c(OC)c2)ccc1O (centres unmarked) [I]
- IC50 [23]: 4.55 µM
- IC50 [24]: 6.44 µM
- IC50 [25]: 3.96 µM

SMILES: COc1cc(/C=C/C(=O)/C=C/c2cc(OC)c(OC)c(OC)c2)ccc1OCc1cn(CCOc2cc(=O)oc3ccccc23)nn1 [J]
- IC50 [26]: 820 nM
- IC50 [27]: 4.68 µM
- IC50 [28]: 2210 nM
- IC50 [29]: 820 nM

From paper PMC10144058, “New Hybrid Scaffolds Based on 5-FU/Curcumin: Synthesis, Cytotoxic, Antiproliferative and Pro-Apoptotic Effect” (Pharmaceutics, 2023)
